Results from patent US9351987B2, “Compositions for treating heartworm infestation” (CEVA SANTE ANIMALE, priority 2010, dated 2016).
Like-named read-outs stand apart in the source and are kept apart here.

Assays:
[1] = test system: Dirofilaria larvae; assay: Effective ivermectin rate against Dirofilaria larvae; type: in vivo; settings: established by the present inventors
Protocol: Currently approved dosages of ivermectin are about 6 mcg/kg orally or 200 mcg/kg subcutaneously. […] Cunningham C P et al., (Am. J. Vet, Res., 2006, 67) brought evidence that this effective rate might be around 0.2 ng/mL of ivermectin in the plasma.
Also, the formulations according to the present invention provide a long term protection, e.g., at least 6 months, 12 months, or 18 months up to 24 months against infections caused by parasites.

[2] = 36-day study, beagle dogs, cited from earlier work
[3] = test system: Dirofilaria larvae; settings: cited from earlier work
[4] = 14-week oral study, cited from earlier work
[5] = estimated from reports from non recommended use of the drug; cited from earlier work
[6] = Plasma ivermectin concentration after ivermectin implant in dogs; type: in vivo, dog
Source text: The concentrations of ivermectin (ng/mL) in the plasma, collected in the jugular vein at day 0 to day 429, are presented in Table 2.
The concentrations of ivermectin in the plasma, collected in the jugular vein, have been evaluated during 429 days for dogs A and […] (Table 2, Example 1) or just dosed until D365 for dogs C and D.

CC[C@H](C)[C@H]1O[C@]2(CC[C@@H]1C)C[C@@H]1C[C@@H](C/C=C(\C)[C@@H](O[C@H]3C[C@H](OC)[C@@H](O[C@H]4C[C@H](OC)[C@@H](O)[C@H](C)O4)[C@H](C)O3)[C@@H](C)/C=C/C=C3\CO[C@@H]4[C@H](O)C(C)=C[C@@H](C(=O)O1)[C@]34O)O2 [Ivermectin]
Effective rate of ivermectin in the plasma [1]: around 0.1 ng/mL | Time to steady-state of H2B1a in plasma ([2]; oral 0.5 and 2.0 mg/kg bw): after about three weeks | Average increase in plasma levels on a four-fold increase in the dose ([2]; oral 0.5 vs 2.0 mg/kg bw): eight-fold | Effective rate of ivermectin in the plasma ([3]; Cunningham C P et al., Am. J. Vet. Res., 2006, 67): around 0.2 ng/mL | Effect on Dirofilaria larvae ([3]; ivermectin administered per se at 6 mcg/kg, generally reported): able to kill efficiency one month aged Dirofilaria larvae | No Observable Effect Levels (NOEL) ([4]; beagle dogs (4/sex/group)): 0.5 mg/kg bw | Signs developed (four dogs, killed prior to the end of the study) ([4]; beagle dogs, 2.0 mg/kg bw group): tremors, ataxia, anorexia and dehydration | Signs observed ([4]; beagle dogs, 1.0 and 2.0 mg/kg bw): mydriasis and slight weight loss | Share of collie dogs highly sensitive to ivermectin [5]: Approximately 30% | Ivermectin concentration in plasma ([6]; dog A (6% ivermectin implant), day 1): 6.25 ng/mL | Ivermectin concentration in plasma ([6]; dog A (6% ivermectin implant), day 2): 5.29 ng/mL | Ivermectin concentration in plasma ([6]; dog A (6% ivermectin implant), day 4): 5.25 ng/mL | Ivermectin concentration in plasma ([6]; dog A (6% ivermectin implant), day 10): 2.56 ng/mL | Ivermectin concentration in plasma ([6]; dog A (6% ivermectin implant), day 21): 1.35 ng/mL | Ivermectin concentration in plasma ([6]; dog A (6% ivermectin implant), day 30): 0.91 ng/mL | Ivermectin concentration in plasma ([6]; dog A (6% ivermectin implant), day 39): 1.09 ng/mL | Ivermectin concentration in plasma ([6]; dog A (6% ivermectin implant), day 60): 0.76 ng/mL | Ivermectin concentration in plasma ([6]; dog A (6% ivermectin implant), day 78): 0.67 ng/mL | Ivermectin concentration in plasma ([6]; dog A (6% ivermectin implant), day 99): 0.26 ng/mL | Ivermectin concentration in plasma ([6]; dog A (6% ivermectin implant), day 120): 0.44 ng/mL | Ivermectin concentration in plasma ([6]; dog A (6% ivermectin implant), day 141): 0.28 ng/mL | Ivermectin concentration in plasma ([6]; dog A (6% ivermectin implant), day 162): 0.18 ng/mL | Ivermectin concentration in plasma ([6]; dog A (6% ivermectin implant), day 183): 0.13 ng/mL | Ivermectin concentration in plasma ([6]; dog A (6% ivermectin implant), day 211): 0.14 ng/mL | Ivermectin concentration in plasma ([6]; dog A (6% ivermectin implant), day 239): 0.10 ng/mL | Ivermectin concentration in plasma ([6]; dog A (6% ivermectin implant), day 266): 0.12 ng/mL | Ivermectin concentration in plasma ([6]; dog A (6% ivermectin implant), day 295): 0.07 ng/mL | Ivermectin concentration in plasma ([6]; dog A (6% ivermectin implant), day 329): 0.06 ng/mL | Ivermectin concentration in plasma ([6]; dog A (6% ivermectin implant), day 365): 0.14 ng/mL | Ivermectin concentration in plasma ([6]; dog A (6% ivermectin implant), day 380): 0.14 ng/mL | Ivermectin concentration in plasma ([6]; dog A (6% ivermectin implant), day 395): 0.17 ng/mL | Ivermectin concentration in plasma ([6]; dog A (6% ivermectin implant), day 429): 0.20 ng/mL | Ivermectin concentration in plasma ([6]; dog B (6% ivermectin implant), day 1): 3.50 ng/mL | Ivermectin concentration in plasma ([6]; dog B (6% ivermectin implant), day 2): 3.04 ng/mL | Ivermectin concentration in plasma ([6]; dog B (6% ivermectin implant), day 4): 2.62 ng/mL | Ivermectin concentration in plasma ([6]; dog B (6% ivermectin implant), day 10): 0.97 ng/mL | Ivermectin concentration in plasma ([6]; dog B (6% ivermectin implant), day 21): 1.92 ng/mL | Ivermectin concentration in plasma ([6]; dog B (6% ivermectin implant), day 30): 1.01 ng/mL | Ivermectin concentration in plasma ([6]; dog B (6% ivermectin implant), day 39): 1.02 ng/mL | Ivermectin concentration in plasma ([6]; dog B (6% ivermectin implant), day 60): 0.51 ng/mL | Ivermectin concentration in plasma ([6]; dog B (6% ivermectin implant), day 78): 0.29 ng/mL | Ivermectin concentration in plasma ([6]; dog B (6% ivermectin implant), day 99): 0.11 ng/mL | Ivermectin concentration in plasma ([6]; dog B (6% ivermectin implant), day 120): 0.30 ng/mL | Ivermectin concentration in plasma ([6]; dog B (6% ivermectin implant), day 141): 0.23 ng/mL | Ivermectin concentration in plasma ([6]; dog B (6% ivermectin implant), day 162): 0.10 ng/mL | Ivermectin concentration in plasma ([6]; dog B (6% ivermectin implant), day 183): 0.11 ng/mL | Ivermectin concentration in plasma ([6]; dog B (6% ivermectin implant), day 211): 0.24 ng/mL | Ivermectin concentration in plasma ([6]; dog B (6% ivermectin implant), day 239): 0.05 ng/mL | Ivermectin concentration in plasma ([6]; dog B (6% ivermectin implant), day 266): 0.10 ng/mL | Ivermectin concentration in plasma ([6]; dog B (6% ivermectin implant), day 295): 0.06 ng/mL | Ivermectin concentration in plasma ([6]; dog B (6% ivermectin implant), day 365): 0.06 ng/mL | Ivermectin concentration in plasma ([6]; dog B (6% ivermectin implant), day 380): 0.06 ng/mL | Ivermectin concentration in plasma ([6]; dog B (6% ivermectin implant), day 395): 0.08 ng/mL | Ivermectin concentration in plasma ([6]; dog B (6% ivermectin implant), day 429): 0.06 ng/mL | Ivermectin concentration in plasma ([6]; dog C (4.5% ivermectin implant), day 1): 6.93 ng/mL | Ivermectin concentration in plasma ([6]; dog C (4.5% ivermectin implant), day 2): 6.42 ng/mL | Ivermectin concentration in plasma ([6]; dog C (4.5% ivermectin implant), day 4): 4.77 ng/mL | Ivermectin concentration in plasma ([6]; dog C (4.5% ivermectin implant), day 10): 2.64 ng/mL | Ivermectin concentration in plasma ([6]; dog C (4.5% ivermectin implant), day 21): 2.14 ng/mL | Ivermectin concentration in plasma ([6]; dog C (4.5% ivermectin implant), day 30): 1.79 ng/mL | Ivermectin concentration in plasma ([6]; dog C (4.5% ivermectin implant), day 39): 1.74 ng/mL | Ivermectin concentration in plasma ([6]; dog C (4.5% ivermectin implant), day 60): 0.28 ng/mL | Ivermectin concentration in plasma ([6]; dog C (4.5% ivermectin implant), day 78): 0.17 ng/mL | Ivermectin concentration in plasma ([6]; dog C (4.5% ivermectin implant), day 99): 0.21 ng/mL | Ivermectin concentration in plasma ([6]; dog C (4.5% ivermectin implant), day 120): 0.27 ng/mL | Ivermectin concentration in plasma ([6]; dog C (4.5% ivermectin implant), day 141): 0.26 ng/mL | Ivermectin concentration in plasma ([6]; dog C (4.5% ivermectin implant), day 162): 0.17 ng/mL | Ivermectin concentration in plasma ([6]; dog C (4.5% ivermectin implant), day 183): 0.17 ng/mL | Ivermectin concentration in plasma ([6]; dog C (4.5% ivermectin implant), day 211): 0.15 ng/mL | Ivermectin concentration in plasma ([6]; dog C (4.5% ivermectin implant), day 239): 0.11 ng/mL | Ivermectin concentration in plasma ([6]; dog C (4.5% ivermectin implant), day 266): 0.13 ng/mL | Ivermectin concentration in plasma ([6]; dog C (4.5% ivermectin implant), day 295): 0.13 ng/mL | Ivermectin concentration in plasma ([6]; dog C (4.5% ivermectin implant), day 329): 0.06 ng/mL | Ivermectin concentration in plasma ([6]; dog C (4.5% ivermectin implant), day 365): 0.16 ng/mL | Ivermectin concentration in plasma ([6]; dog D (3% ivermectin implant), day 1): 7.63 ng/mL | Ivermectin concentration in plasma ([6]; dog D (3% ivermectin implant), day 2): 6.95 ng/mL | Ivermectin concentration in plasma ([6]; dog D (3% ivermectin implant), day 4): 4.35 ng/mL | Ivermectin concentration in plasma ([6]; dog D (3% ivermectin implant), day 10): 3.82 ng/mL | Ivermectin concentration in plasma ([6]; dog D (3% ivermectin implant), day 21): 1.23 ng/mL | Ivermectin concentration in plasma ([6]; dog D (3% ivermectin implant), day 30): 1.54 ng/mL | Ivermectin concentration in plasma ([6]; dog D (3% ivermectin implant), day 39): 1.15 ng/mL | Ivermectin concentration in plasma ([6]; dog D (3% ivermectin implant), day 60): 0.84 ng/mL | Ivermectin concentration in plasma ([6]; dog D (3% ivermectin implant), day 78): 0.52 ng/mL | Ivermectin concentration in plasma ([6]; dog D (3% ivermectin implant), day 99): 0.69 ng/mL | Ivermectin concentration in plasma ([6]; dog D (3% ivermectin implant), day 120): 0.87 ng/mL | Ivermectin concentration in plasma ([6]; dog D (3% ivermectin implant), day 141): 0.65 ng/mL | Ivermectin concentration in plasma ([6]; dog D (3% ivermectin implant), day 162): 0.45 ng/mL | Ivermectin concentration in plasma ([6]; dog D (3% ivermectin implant), day 183): 0.51 ng/mL | Ivermectin concentration in plasma ([6]; dog D (3% ivermectin implant), day 211): 0.29 ng/mL | Ivermectin concentration in plasma ([6]; dog D (3% ivermectin implant), day 239): 0.18 ng/mL | Ivermectin concentration in plasma ([6]; dog D (3% ivermectin implant), day 266): 0.22 ng/mL | Ivermectin concentration in plasma ([6]; dog D (3% ivermectin implant), day 295): 0.13 ng/mL | Ivermectin concentration in plasma ([6]; dog D (3% ivermectin implant), day 329): 0.13 ng/mL | Ivermectin concentration in plasma ([6]; dog D (3% ivermectin implant), day 365): 0.09 ng/mL
